From patent publication US7084275B2, “Stereospecific enrichment of heterocyclic enantiomers” (R. T. Alamo Ventures I, LLC, priority 2001, dated 2006)

What was measured:
[1] = system: PDE4 partially purified from human U-937 pronocytic cells; assay: PDE4 biochemical enzyme assay ([3H]cAMP hydrolysis); details: 100 μM test substance; 1 μM cAMP, Tris pH 7.5, 20 min, 30° C.
Source text: (§1) In this example, racemic flosequinan, (R)-(+)-flosequinan, and (S)-(−)-flosequinan were subjected to biochemical enzyme assays to determine their respective percent inhibition of a variety of phosphodiesterases (PDE1-PDE6). The (R)-(+)-flosequinan and (S)-(−)-flosequinan used in this example was resolved by high-performance liquid chromatography (HPLC) as follows. A 5.0 g sample of a racemic mixture of flosequinan was resolved over a 10 cm ID×50 cm L CHIRALCEL OD HPLC column (Chiral Technologies, Exton, Pa.) at 25° C. and with a flow rate of 1.0 ml/minute such that the column pressure was 37 bar. The mobile phase employed was 100% methanol and the detection of the mixture was performed at 270 nm. […] A total of 2.1 g of the (−) enantiomer having an optical purity greater than 99% was produced. A total of 2.3 g of the (+) enantiomer having an optical purity greater than 99% was produced.
(§2) PDE4: PDE4 partially purified from human U-937 pronocytic cells was used. A racemic mixture of flosequinan, and each enantiomer of flosequinan, all at a molar concentration of 100 μM, were independently incubated with 20 μg PDE4 enzyme and 1 μM cAMP containing 0.01 μM [^3H]cAMP in Tris buffer pH 7.5 for 20 minutes at 30° C. The reaction was terminated by boiling for 2 minutes, and the resulting AMP was converted to adenosine by addition of 10 mg/ml snake venom nucleotidase and further incubation at 30° C. for 10 minutes. Unhydrolyzed cAMP was bound to AGI-X2 resin, and the remaining [^3H]adenosine in the aqueous phase was quantitated by scintillation counting.

[2] = molecular target: T1, PDE2 partially purified from human platelets (Homo sapiens, UniProt O00408); assay: PDE2 biochemical enzyme assay ([3H]cAMP hydrolysis); details: 100 μM test substance; 25 μM cAMP, Tris pH 7.5, 20 min, 30° C.
T1 construct: PDE2 partially purified from human platelets was used; from tissue; host or cells: human platelets
T1 sequence (O00408 whole entry): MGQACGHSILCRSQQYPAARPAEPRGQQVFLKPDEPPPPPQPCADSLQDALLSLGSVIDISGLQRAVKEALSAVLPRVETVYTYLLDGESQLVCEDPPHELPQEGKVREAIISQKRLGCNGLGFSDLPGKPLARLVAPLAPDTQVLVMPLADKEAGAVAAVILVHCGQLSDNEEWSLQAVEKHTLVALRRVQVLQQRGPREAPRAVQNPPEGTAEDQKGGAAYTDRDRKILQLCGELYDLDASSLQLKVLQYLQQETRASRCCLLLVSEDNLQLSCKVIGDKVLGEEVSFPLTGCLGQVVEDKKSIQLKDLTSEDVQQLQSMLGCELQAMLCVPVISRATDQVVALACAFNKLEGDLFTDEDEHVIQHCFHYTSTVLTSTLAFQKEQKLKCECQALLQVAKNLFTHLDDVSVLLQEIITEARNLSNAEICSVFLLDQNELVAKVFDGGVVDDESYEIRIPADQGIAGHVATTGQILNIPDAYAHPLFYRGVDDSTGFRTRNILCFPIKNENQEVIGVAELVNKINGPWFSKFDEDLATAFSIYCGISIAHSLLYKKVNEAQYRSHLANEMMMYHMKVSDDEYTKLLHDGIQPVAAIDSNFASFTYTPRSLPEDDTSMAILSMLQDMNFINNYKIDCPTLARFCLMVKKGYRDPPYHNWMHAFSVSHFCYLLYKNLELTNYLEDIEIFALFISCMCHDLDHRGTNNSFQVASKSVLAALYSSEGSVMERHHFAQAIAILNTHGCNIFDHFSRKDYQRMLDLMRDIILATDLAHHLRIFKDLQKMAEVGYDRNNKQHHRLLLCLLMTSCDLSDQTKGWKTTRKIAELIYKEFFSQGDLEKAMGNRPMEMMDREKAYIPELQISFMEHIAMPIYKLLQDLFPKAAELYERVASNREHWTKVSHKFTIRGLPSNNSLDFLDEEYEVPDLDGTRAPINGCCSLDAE
Source text: as §1
as §2, with “PDE2: PDE2 partially” for “PDE4: PDE4 partially”, “human platelets” for “human U-937 pronocytic cells”, “with 23” for “with 20”, “μg PDE2 enzyme, 25” for “μg PDE4 enzyme and 1”, “containing 0.05” for “containing 0.01”

[3] = molecular target: T2, PDE5 partially purified from human platelets (Homo sapiens, UniProt O76074); assay: PDE5 biochemical enzyme assay ([3H]cGMP hydrolysis); details: 100 μM test substance; 1 μM cGMP, Tris pH 7.5, 20 min, 30° C.
T2 construct: PDE5 partially purified from human platelets was used; from tissue; host or cells: human platelets
Source text: as §1
PDE5: PDE5 partially purified from human platelets was used. A racemic mixture of flosequinan, and each enantiomer of flosequinan, all at a molar concentration of 100 μM, were independently incubated with 120 μg PDE5 enzyme and 1 μM cGMP containing 0.01 μM [^3H]cGMP in Tris buffer pH 7.5 for 20 minutes at 30° C. The reaction was terminated by boiling for 2 minutes, and the resulting GMP was converted to guanosine by addition of 10 mg/ml snake venom nucleotidase and further incubation at 30° C. for 10 minutes. Unhydrolyzed cGMP was bound to AGI-X2 resin, and the remaining [^3H]guanosine in the aqueous phase was quantitated by scintillation counting.

[4] = system: PDE1 partially purified from bovine heart; assay: PDE1 biochemical enzyme assay ([3H]cAMP hydrolysis); details: 100 μM test substance; 1.0 μM [3H]cAMP, calmodulin, Tris pH 7.5, 20 min, 30° C.
Source text: as §1
as §2, with “PDE1: PDE1 partially” for “PDE4: PDE4 partially”, “from bovine heart” for “from human U-937 pronocytic cells”, “with 13” for “with 20”, “μg PDE1 enzyme, 1.0” for “μg PDE4 enzyme and 1 μM cAMP containing 0.01”, “[^3H]cAMP and Cal2/calmodulin” for “[^3H]cAMP”

[5] = molecular target: T3, PDE6 partially purified from bovine retinal rod and activated by trypsin (Bos taurus, UniProt P11541+P23439); assay: PDE6 biochemical enzyme assay ([3H]cGMP hydrolysis); details: 100 μM test substance; 100 μM cGMP, Tris pH 7.5, 20 min, 30° C.
T3 construct: from tissue; host or cells: bovine retinal rod
T3 sequence (P11541 2-856 limits assumed): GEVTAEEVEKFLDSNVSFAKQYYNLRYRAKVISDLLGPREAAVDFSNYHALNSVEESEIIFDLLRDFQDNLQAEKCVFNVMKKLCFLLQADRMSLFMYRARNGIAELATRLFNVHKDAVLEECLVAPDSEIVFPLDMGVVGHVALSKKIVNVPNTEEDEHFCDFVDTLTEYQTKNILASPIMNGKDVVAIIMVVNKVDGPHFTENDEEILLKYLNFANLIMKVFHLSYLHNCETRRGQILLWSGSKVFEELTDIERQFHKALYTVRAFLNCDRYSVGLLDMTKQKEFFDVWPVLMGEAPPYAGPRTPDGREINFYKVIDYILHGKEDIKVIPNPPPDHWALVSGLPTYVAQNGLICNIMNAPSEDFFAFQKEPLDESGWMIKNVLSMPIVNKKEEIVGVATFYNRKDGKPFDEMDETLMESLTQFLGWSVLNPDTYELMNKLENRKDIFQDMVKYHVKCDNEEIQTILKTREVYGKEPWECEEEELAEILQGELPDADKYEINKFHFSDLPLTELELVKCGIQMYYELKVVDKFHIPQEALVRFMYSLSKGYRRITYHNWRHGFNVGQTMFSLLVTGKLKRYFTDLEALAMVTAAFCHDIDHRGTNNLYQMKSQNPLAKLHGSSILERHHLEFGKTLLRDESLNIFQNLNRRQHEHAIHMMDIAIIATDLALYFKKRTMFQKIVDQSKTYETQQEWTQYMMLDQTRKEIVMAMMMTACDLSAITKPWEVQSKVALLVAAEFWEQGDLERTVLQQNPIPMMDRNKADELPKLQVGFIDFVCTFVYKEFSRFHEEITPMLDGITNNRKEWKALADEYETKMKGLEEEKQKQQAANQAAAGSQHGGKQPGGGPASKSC
T3 sequence (P23439 2-850 limits assumed): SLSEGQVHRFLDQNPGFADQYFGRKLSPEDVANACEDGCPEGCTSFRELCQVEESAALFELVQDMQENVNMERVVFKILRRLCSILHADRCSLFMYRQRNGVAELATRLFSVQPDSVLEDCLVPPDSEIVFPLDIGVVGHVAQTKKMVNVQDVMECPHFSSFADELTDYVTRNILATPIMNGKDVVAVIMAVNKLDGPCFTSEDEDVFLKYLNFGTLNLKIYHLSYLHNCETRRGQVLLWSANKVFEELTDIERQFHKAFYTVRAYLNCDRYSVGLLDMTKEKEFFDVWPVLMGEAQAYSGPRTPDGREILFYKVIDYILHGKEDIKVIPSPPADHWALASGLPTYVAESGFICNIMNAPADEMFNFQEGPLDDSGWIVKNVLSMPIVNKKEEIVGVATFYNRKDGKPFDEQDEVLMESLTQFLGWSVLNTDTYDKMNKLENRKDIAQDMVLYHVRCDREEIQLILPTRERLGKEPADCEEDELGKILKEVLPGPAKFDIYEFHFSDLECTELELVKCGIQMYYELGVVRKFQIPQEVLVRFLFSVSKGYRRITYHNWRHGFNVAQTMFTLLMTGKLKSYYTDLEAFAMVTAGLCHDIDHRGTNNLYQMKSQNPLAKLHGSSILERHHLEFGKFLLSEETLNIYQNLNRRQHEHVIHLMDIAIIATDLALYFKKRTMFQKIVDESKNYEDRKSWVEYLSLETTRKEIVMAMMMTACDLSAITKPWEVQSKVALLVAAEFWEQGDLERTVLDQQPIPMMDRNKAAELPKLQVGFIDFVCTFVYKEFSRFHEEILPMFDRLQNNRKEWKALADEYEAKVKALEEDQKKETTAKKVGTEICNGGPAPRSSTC
Source text: as §1
PDE6: PDE6 partially purified from bovine retinal rod and activated by trypsin was used. A racemic mixture of flosequinan, and each enantiomer of flosequinan, all at a molar concentration of 100 μM, were independently incubated with 0.2 μg/ml active PDE6 and 100 μM cGMP containing 0.1 μM [^3H]cGMP in Tris buffer pH 7.5 for 20 minutes at 30° C. […] Unhydrolyzed cGMP was bound to AGI-X2 resin, and [^3H]guanosine remaining in the aqueous phase was quantitated by scintillation counting.

[6] = molecular target: T4, PDE3 partially purified from human platelets (Homo sapiens, UniProt Q14432); assay: PDE3 biochemical enzyme assay ([3H]cAMP hydrolysis); details: 100 μM test substance; 1 μM cAMP, Tris pH 7.5, 20 min, 30° C.
T4 construct: PDE3 partially purified from human platelets was used; from tissue; host or cells: human platelets
T4 sequence (Q14432 whole entry): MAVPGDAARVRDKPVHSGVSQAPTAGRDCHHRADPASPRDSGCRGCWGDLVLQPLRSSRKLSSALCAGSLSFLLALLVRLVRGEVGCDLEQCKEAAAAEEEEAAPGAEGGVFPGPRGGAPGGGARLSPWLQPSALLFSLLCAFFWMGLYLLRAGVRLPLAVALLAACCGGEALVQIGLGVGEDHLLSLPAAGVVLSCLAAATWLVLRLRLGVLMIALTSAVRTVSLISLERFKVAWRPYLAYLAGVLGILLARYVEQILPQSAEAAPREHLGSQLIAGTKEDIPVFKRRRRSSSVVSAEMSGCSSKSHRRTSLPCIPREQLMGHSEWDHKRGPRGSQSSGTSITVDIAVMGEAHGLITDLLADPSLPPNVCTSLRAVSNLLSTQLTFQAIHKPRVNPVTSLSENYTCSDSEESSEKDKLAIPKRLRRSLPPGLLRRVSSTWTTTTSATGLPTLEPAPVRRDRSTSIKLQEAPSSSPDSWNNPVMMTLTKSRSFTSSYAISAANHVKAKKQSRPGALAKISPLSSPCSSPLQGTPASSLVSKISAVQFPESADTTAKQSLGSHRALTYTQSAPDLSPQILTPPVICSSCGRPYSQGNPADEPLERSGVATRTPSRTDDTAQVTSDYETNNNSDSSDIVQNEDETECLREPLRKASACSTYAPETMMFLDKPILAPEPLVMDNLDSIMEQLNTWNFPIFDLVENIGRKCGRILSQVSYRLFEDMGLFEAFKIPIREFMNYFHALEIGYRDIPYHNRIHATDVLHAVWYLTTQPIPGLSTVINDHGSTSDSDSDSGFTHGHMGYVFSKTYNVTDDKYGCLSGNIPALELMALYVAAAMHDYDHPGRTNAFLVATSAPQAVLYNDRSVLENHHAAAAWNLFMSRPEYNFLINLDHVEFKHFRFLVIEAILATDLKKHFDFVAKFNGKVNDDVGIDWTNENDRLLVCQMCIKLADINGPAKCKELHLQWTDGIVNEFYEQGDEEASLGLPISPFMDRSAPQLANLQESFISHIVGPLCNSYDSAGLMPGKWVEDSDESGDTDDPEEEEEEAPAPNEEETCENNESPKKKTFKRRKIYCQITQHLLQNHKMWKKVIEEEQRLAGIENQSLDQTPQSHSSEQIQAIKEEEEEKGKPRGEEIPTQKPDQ
Source text: as §1
PDE3: PDE3 partially purified from human platelets was used. A racemic mixture of flosequinan, and each enantiomer of flosequinan, all at a molar concentration of 100 μM, were independently incubated with 13 μg PDE3 enzyme and 1 μM cAMP containing 0.01 μM [^3H]cAMP in Tris buffer pH 7.5 for 20 minutes at 30° C. […] Unhydrolyzed cAMP was bound to AGI-X2 resin, and the remaining [^3H]adenosine in the aqueous phase was quantitated by scintillation counting.

Structure (SMILES) | % Inhibition of PDE4 [1] | inhibition at 100 µM [2] | inhibition at 100 µM [3] | % Inhibition of PDE1 [4] | % Inhibition of PDE6 [5] | inhibition at 100 µM [6]
Cn1cc([S+](C)[O-])c(=O)c2ccc(F)cc21 (racemic) [racemic mixture of flosequinan, 7-fluoro-1-methyl-3-methylsulfinyl-4-quinolone, reference compound] | 24% | 18% | 11% | 31% | – | –
Cn1cc([S@@+](C)[O-])c(=O)c2ccc(F)cc21 [(+)-flosequinan, (R)-(+)-7-fluoro-1-methyl-3-methylsulfinyl-4-quinolone] | 6% | 18% | 17% | 28% | 22% | 32%
Cn1cc([S@+](C)[O-])c(=O)c2ccc(F)cc21 [(−)-flosequinan, (S)-(−)-7-fluoro-1-methyl-3-methylsulfinyl-4-quinolone] | 1% | 13% | 10% | 11% | – | 5%
